Laboratory results from patent publication US7365085B2, “Compounds and methods” (SmithKline Beecham Corporation, priority 2002, dated 2008).

What was measured:
[1] = biological target: T1, LXRα ligand binding domain (Homo sapiens, UniProt Q13133); assay: Ligand Sensing Assay for LXRα agonist activity; format: biochemical; conditions: 1 μM; over a background reading of 10000 fluorescence units
T1 construct: His tag; made in house
T1 sequence (Q13133 183-447): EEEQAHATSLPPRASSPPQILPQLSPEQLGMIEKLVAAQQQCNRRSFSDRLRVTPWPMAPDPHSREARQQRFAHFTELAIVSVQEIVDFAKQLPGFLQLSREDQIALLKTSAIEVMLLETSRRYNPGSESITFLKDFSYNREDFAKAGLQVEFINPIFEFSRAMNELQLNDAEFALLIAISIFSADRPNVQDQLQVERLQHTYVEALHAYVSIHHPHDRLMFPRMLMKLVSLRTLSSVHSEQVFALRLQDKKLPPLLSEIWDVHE
T1 sequence (Q15788 676-700 partner): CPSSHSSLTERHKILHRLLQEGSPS
Protocol: Test Method 2: Ligand Sensing Assay for LXRα Agonist Activity
The assay for LXRα was run according to the procedures of Test Method 1, above using his-tagged LXRα ligand binding domain (amino acids 183-447 of Genbank accession number U22662, with the 14th amino acid corrected to A from R). In this assay 1 μM 24(S),25-epoxycholesterol gave a reading of 20000 fluorescence units over a background reading of 10000 fluorescence units.

[2] = biological target: T2, human LXRβ ligand binding domain (Homo sapiens, UniProt P55055); assay: Ligand Sensing Assay (LiSA) for LXRβ agonist activity (recruitment of SRC1-derived peptide); format: biochemical; conditions: 1 μM; over a background reading of 10000 fluorescence units
T2 construct: made in house; host or cells: E. coli BL21 (DE3), vector pRSETa
T2 sequence (P55055 184-460 limits assumed): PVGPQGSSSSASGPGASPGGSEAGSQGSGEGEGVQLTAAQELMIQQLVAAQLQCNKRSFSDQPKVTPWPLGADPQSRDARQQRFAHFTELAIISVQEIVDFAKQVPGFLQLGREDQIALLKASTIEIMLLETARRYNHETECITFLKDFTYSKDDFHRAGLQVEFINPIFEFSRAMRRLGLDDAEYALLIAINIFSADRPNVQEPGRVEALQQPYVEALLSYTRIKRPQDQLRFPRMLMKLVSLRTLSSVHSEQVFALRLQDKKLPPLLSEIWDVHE
T2 sequence (Q15788 676-700 partner limits assumed): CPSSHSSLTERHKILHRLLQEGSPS
Excerpt: The term “LXR modulator,” as used herein, means a small molecule that modulates the biological activities of LXRα and/or LXRβ. More specifically, such an LXR modulator either enhances or inhibits the biological activities of LXR. If such a modulator partially or completely enhances the biological activities of LXR, it is a partial or complete LXR agonist, respectively. […] Preferably, the LXR modulator compounds of this invention are LXR agonists. As used herein, the term “LXR agonist” refers to compounds which achieve at least 20% activation of LXR relative to 24(S),25-epoxycholesterol, the appropriate positive control in the HTRF assay described below in Test Method 1. It should be noted that to show activity in the specific Test Methods described herein, the LXR modulator compound must bind to the LXR nuclear receptor and recruit the specific peptide derived from the coactivator protein, SRC1, to the modulator compound-bound LXR complex. […]
Typically 25-50 g of cell paste is resuspended in 250-500 mL TBS, pH 8.0 (25 mM Tris, 150 mM NaCl). […] After washing to baseline absorbance with equilibration buffer, the column is washed with approximately one column volume of TBS pH […] containing 95 mM imidazole. […] Afterwashing to baseline absorbance with the dilution buffer the protein is eluted with a gradient from 50-500 mM NaCl. […]

For `C[C@H](CC[C@@H]1OC1(C)C)[C@H]1CC[C@H]2[C@@H]3CC=C4C[C@@H](O)CC[C@]4(C)[C@H]3CC[C@]12C` [24(S),25-epoxycholesterol], the reading [1] was 20000 fluorescence units and the reading [2] was 20000 fluorescence units.
